Test results from PMC5234788 (PLoS ONE, 2017).
pEC50: −log10 of the molar value.

What was measured:
Dopamine Transporter = tested on: T1, Dopamine Transporter; test: Radio-ligand binding assay, Dopamine Transporter; conditions: 10 μM l-THBr; radioligand [3H]WIN 35,428
T1 construct: Caliper Lifescience
Description: (§1) To determine the possible targets of l-THBr action, the binding affinities of l-THBr to neurotransmitter receptors known to be involved in sedation, hypnosis and anxiety were investigated. Radio-ligand binding assays were performed by Caliper Lifescience (Hopkinton, MA, USA). The screening was carried out at a concentration of 10 μM l–THBr to test its ability to inhibit the binding of radioligands to their corresponding receptors. The results were expressed as percentage of inhibition of labeled ligand binding to individual receptors. Significant binding activity was defined as ≥50%.

Dopamine, D3 = tested on: T2, Dopamine, D3; test: Radio-ligand binding assay, Dopamine D3; conditions: 10 μM l-THBr
T2 construct: Caliper Lifescience
Description: as §1

GABA A, Agonist Site = test: Radio-ligand binding assay, GABA A agonist site; conditions: 10 μM l-THBr; radioligand [3H]GABA
Description: as §1

GABA-B = tested on: T3, GABA-B; test: Radio-ligand binding assay, GABA-B; conditions: 10 μM l-THBr; radioligand [3H]CGP 54626A
T3 construct: Caliper Lifescience
Description: as §1

[1] = tested on: Glutamate, Kainate Site (Ionotropic); test: Radio-ligand binding assay, Glutamate Kainate site; conditions: 10 μM l-THBr; radioligand [3H]Kainic acid
Description: as §1

[2] = tested on: Glutamate, NMDA Agonist Site (Ionotropic); test: Radio-ligand binding assay, Glutamate NMDA agonist site; conditions: 10 μM l-THBr; radioligand [3H]CGP 39653
Description: as §1

[3] = tested on: Glutamate, NMDA, Phencyclidine Site (Ionotropic); test: Radio-ligand binding assay, Glutamate NMDA phencyclidine site; conditions: 10 μM l-THBr; radioligand [3H]TCP
Description: as §1

[4] = tested on: T4, Glutamate, NMDA, Glycine (stry-insens Site (Ionotropic)); test: Radio-ligand binding assay, Glutamate NMDA glycine site; conditions: 10 μM l-THBr; radioligand [3H]-MDL-105,519
T4 construct: Caliper Lifescience
Description: as §1

[5] = tested on: Glycline, Strychnine-sensitive; test: Radio-ligand binding assay, Glycine strychnine-sensitive; conditions: 10 μM l-THBr; radioligand [3H]Strchnine
Description: as §1

Serotonin, 5HT1A (h) = tested on: T5, Serotonin, 5HT1A (h); test: Radio-ligand binding assay, Serotonin 5HT1A; set-up: species or system human; conditions: 10 μM l-THBr
T5 construct: Caliper Lifescience
Description: as §1

Serotonin, 5HT2C = tested on: T6, Serotonin, 5HT2C; test: Radio-ligand binding assay, Serotonin 5HT2C; conditions: 10 μM l-THBr; radioligand [3H]Mesulergine
T6 construct: Caliper Lifescience
Description: as §1

Serotonin, 5HT3 = tested on: T7, Serotonin, 5HT3; test: Radio-ligand binding assay, Serotonin 5HT3; conditions: 10 μM l-THBr; radioligand [3H]GR 65630
T7 construct: Caliper Lifescience
Description: as §1

Serotonin, 5HT4 = tested on: T8, Serotonin, 5HT4; test: Radio-ligand binding assay, Serotonin 5HT4; conditions: 10 μM l-THBr; radioligand [3H] 113808
T8 construct: Caliper Lifescience
Description: as §1

Serotonin, 5HT6 (h) = tested on: T9, Serotonin, 5HT6 (h); test: Radio-ligand binding assay, Serotonin 5HT6; set-up: species or system human; conditions: 10 μM l-THBr; radioligand [3H]-LSD
T9 construct: Caliper Lifescience
Description: as §1

Serotonin, 5HT7 (h) = tested on: T10, Serotonin, 5HT7 (h); test: Radio-ligand binding assay, Serotonin 5HT7; set-up: species or system human; conditions: 10 μM l-THBr
T10 construct: Caliper Lifescience
Description: as §1

[6] = target: T11, 5-HT1A receptors in rat hippocampus (Rattus norvegicus, UniProt P19327); test: [35S]GTPγS assay for 5-HT1A receptor activity in rat hippocampus; format: biochemical; conditions: rat hippocampus membranes; read-out: EC50, increase in [35S]GTPγS binding
T11 construct: rat hippocampal tissues highly expressing 5-HT1A receptors were prepared as previously described; from tissue; host or cells: SD rat hippocampus membranes
T11 sequence (P19327 whole entry): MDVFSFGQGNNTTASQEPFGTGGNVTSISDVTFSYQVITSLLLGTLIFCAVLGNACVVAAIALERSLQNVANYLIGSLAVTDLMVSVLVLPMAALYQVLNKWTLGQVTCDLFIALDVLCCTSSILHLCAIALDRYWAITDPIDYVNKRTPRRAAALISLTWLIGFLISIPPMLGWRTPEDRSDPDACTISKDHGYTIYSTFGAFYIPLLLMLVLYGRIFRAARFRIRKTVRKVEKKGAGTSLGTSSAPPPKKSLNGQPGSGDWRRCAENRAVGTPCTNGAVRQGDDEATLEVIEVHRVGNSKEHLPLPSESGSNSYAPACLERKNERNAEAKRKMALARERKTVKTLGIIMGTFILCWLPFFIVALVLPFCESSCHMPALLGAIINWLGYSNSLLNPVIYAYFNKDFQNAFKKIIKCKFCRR
Excerpt: D2-D4 dopamine receptors and 5-HT1A serotonin receptors are Gαi-coupled receptors that mediate inhibitory neurotransmission. We conducted [^35S]GTPγS assays to determine the agonist or antagonist properties of l-THBr at D2 dopamine receptors or 5-HT1A serotonin receptors. HEK293 cells stably expressing D2 receptors were provided by the Beijing Institute of Pharmacology and Toxicology (Beijing, China). The membrane preparation of D2-expressing HEK293 cells and rat hippocampal tissues highly expressing 5-HT1A receptors were prepared as previously described. Briefly, 10 SD rats were anesthetized and decapitated, and the hippocampi were quickly dissected and stored at -80°C until use. D2 receptor-expressing HEK293 cells and the hippocampal tissue were each homogenized at 4°C in 50 mM Tris-HCl buffer (pH 7.4). The homogenates were centrifuged at 2500 × g for 6 min, and the supernatant was further centrifuged for 20 min at 40000 × g. Membranes were re-suspended in Tris-HCl buffer and stored at -80°C until use.
[^35S]GTPγS assays were performed in a total volume of 0.5 ml at 4°C. […] Bound radioactivity was determined by liquid scintillation counting. Drug effects were expressed as drug-induced increase in binding over basal binding (binding in the absence of drugs). […] The inhibitory effect of l–THBr was determined by a similar equation to obtain the IC50 values.

male CD-1 ICR mice [7] = test: Locomotor activity test; format: in vivo; conditions: l-THBr 1, 5, or 10 mg/kg, i.p., 60 min
Excerpt: The spontaneous activity video analysis system consists of 8 sound-attenuated chambers (40 cm × 40 cm × 65 cm) with a built-in infrared camera. (JL Behave, Shanghai Ji-Liang Software Technology Co., Ltd). During the behavioral tests, the experimenter was outside the testing room, and the chambers were cleaned between successive runs. Forty male CD-1 ICR mice were allowed to acclimate for three days in home cages and were handled for another three days to minimize stress after arrival in the animal facility. On the following day, after habituation to the activity chambers for 60 min, mice were administered vehicle, diazepam (DZP, 2 mg/kg, i.p.) or l–THBr (1, 5, or 10 mg/kg, i.p.) and immediately placed into the test chambers to record their locomotor activity for 60 min.

male CD-1 ICR mice [8] = test: Light-dark box test; format: in vivo; conditions: l-THBr 1 or 5 mg/kg i.p., 30 min before test, P < 0.05 vs vehicle
Excerpt: The light-dark box test is a sensitive model to detect activity in disorders related to anxiety, based on the innate aversion of rodents to brightly lit areas and on their spontaneous exploratory behavior in response to a novel environment. The light-dark transition box is a polypropylene animal cage (44 cm × 21 cm × 21 cm), which is divided into two compartments, a light box (illuminated by a 60 W light source with 1000 lx light intensity) and a dark box. Forty-eight male CD-1 ICR mice were placed in the light box 30 min after l–THBr or DZP injection and allowed to move freely to both boxes for 5 min. The number of transitions between the two boxes were recorded by a video camera.

For COc1ccc2c(c1O)CN1CCc3cc4c(cc3[C@@H]1C2)OCO4 [l-THBr, levo-tetrahydroberberrubine], the Average inhibition percentage (Dopamine Transporter) was 8.8%, the Activity (Dopamine, D3) was “Yes (Significant binding affinity of l-THBr was defined as greater than 50% inhibition of ligand binding)” and the Average inhibition percentage (Dopamine, D3; radioligand [3H]7-OH-DAPT) was 77.61%. The Average inhibition percentage (GABA A, Agonist Site) was 7.89%, the Average inhibition percentage (GABA-B) was -6.94% and the Average inhibition percentage [1] was -0.89%. The Average inhibition percentage [2] was 4.79%, the Average inhibition percentage [3] was -12.74% and the Average inhibition percentage [4] was 1.79%. For the same compound, the Average inhibition percentage [5] was 21.26%, the Activity (Serotonin, 5HT1A (h)) was “Yes (Significant binding affinity of l-THBr was defined as greater than 50% inhibition of ligand binding)” and the Average inhibition percentage (Serotonin, 5HT1A (h); radioligand [3H]-8-OH-DPAT) was 78.31%. The Average inhibition percentage (Serotonin, 5HT2C) was 30.65%, the Average inhibition percentage (Serotonin, 5HT3) was 23.02% and the Average inhibition percentage (Serotonin, 5HT4) was 32.84%. The Average inhibition percentage (Serotonin, 5HT6 (h)) was 22.79%, the Activity (Serotonin, 5HT7 (h)) was “Yes (Significant binding affinity of l-THBr was defined as greater than 50% inhibition of ligand binding)” and the Average inhibition percentage (Serotonin, 5HT7 (h); radioligand [3H]LSD) was 54.82%. The pEC50 [6] was 6.63, the “influence on locomotor activity (travel distance)” value (male CD-1 ICR mice [7]) was “no influence” and the “number of transitions between the light/dark sides” value (male CD-1 ICR mice [8]) was “increased”.
